# Calls of active or inactive are those of the source.
# How the values were obtained:
# [1] = Dd2 malaria parasite growth inhibition potency – SYBR Green, dry powder samples, dose response (AID 1159566); type: functional, cell-based;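 also: potency for growth inhibition with lower SYBR green DNA signal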
# [2] = growth inhibition of PfATP4-mutant resistant parasites – NITD609-resistant line, SYBR Green, dry powder, dose response (AID 1159571); type: functional, cell-based;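 also: parasites synchronized at ring stage by sorbitol before testing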
# [3] = growth inhibition of yeast DHODH-expressing 3D7 parasites – SYBR Green, dry powder samples, dose response (AID 1159570); type: functional, cell-based;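 also: parasite growth measured after 72 hours of compound exposure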
# [4] = toxicity to human HepG2 hepatoma cells – cell-based, plate reader, dry powder samples, cytotoxicity control, dose response (AID 1159569); type: functional;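 also: inhibitor potency with signal falling toward the positive control level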
# [5] = P. falciparum Dd2 growth inhibitors, dose response, SYBR Green, cherry-picked samples (AID 1159567); type: functional, cell-based
# [6] = Luminescence Cell-Based Dose Response HTS to Identify Activators of Luciferase Translation or Activity in H4 […] Cells. [Related pubchem assays: 1829 (Project Summary), 1814 (Primary HTS)]; type: functional
# [7] = Luminescence Cell-Based Dose Response to Identify Activators of 5'UTR Stem-Loop Driven Prion Protein mRNA Translation in H4-C Neuroglioblastoma Cells. [Related pubchem assays: 1829 (Project Summary), 1814 (Primary HTS)]; type: functional
# [8] = Luminescence Cell-Based Dose Response to Identify Activators of Luciferase Translation or Activity in H4-C Neuroglioblastoma Cells. [Related pubchem assays: 1829 (Project Summary), 1814 (Primary HTS)]; type: functional
# [9] = Luminescence Cell-Based Dose Confirmation to Identify Activators of 5'UTR Stem-Loop Driven Alpha-Synuclein mRNA Translation in H4 Neuroglioblastoma Cells. [Related pubchem assays: 1829 (Project Summary), 1814 (Primary HTS)]; type: functional
# [10] = toxicity to human hepatoma HepG2 cells – cell-based, cherry-picked samples, cytotoxicity control, dose response (AID 1159577); type: functional
# [11] = target: T1, RNA-binding protein pos-1 (Caenorhabditis elegans, UniProt G5EF15); assay: disruptors of C. elegans POS-1 RNA interaction – biochemical, fluorescence polarization, dose response (AID 1964);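 also: purified POS-1 fused to maltose binding protein made in E. coli; potency of compounds blocking POS-1 binding to fluorescent RNA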
# T1 sequence (G5EF15 whole entry): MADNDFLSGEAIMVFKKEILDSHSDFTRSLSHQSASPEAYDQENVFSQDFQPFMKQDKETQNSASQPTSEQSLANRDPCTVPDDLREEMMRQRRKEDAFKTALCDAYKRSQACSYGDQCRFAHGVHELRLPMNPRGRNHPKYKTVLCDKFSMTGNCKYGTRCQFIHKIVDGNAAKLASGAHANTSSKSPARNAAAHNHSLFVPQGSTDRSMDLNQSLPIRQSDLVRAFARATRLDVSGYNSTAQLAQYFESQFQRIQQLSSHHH
# [12] = target: T2, Carboxy-terminal domain RNA polymerase II polypeptide A small phosphatase 1 (Homo sapiens, UniProt Q9GZU7); assay: CTDSP1 inhibitors, concentration-response, biochemical, absorbance readout, ultra-high-throughput screen actives (AID 540297); type: functional
# T2 sequence (Q9GZU7 whole entry): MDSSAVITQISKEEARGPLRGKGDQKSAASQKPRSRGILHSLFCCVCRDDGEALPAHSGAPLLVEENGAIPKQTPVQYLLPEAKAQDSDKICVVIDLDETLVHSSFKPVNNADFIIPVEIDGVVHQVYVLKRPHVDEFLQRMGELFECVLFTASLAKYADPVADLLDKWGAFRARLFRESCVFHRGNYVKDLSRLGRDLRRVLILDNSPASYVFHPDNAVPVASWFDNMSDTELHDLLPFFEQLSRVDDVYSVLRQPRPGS
# [13] = target: T3, Zinc finger protein mex-5 (Caenorhabditis elegans, UniProt Q9XUB2); assay: potency of MEX-5 RNA-binding blockers – biochemical, C. elegans, fluorescence polarization, dose response (AID 1960)
# T3 sequence (Q9XUB2 whole entry): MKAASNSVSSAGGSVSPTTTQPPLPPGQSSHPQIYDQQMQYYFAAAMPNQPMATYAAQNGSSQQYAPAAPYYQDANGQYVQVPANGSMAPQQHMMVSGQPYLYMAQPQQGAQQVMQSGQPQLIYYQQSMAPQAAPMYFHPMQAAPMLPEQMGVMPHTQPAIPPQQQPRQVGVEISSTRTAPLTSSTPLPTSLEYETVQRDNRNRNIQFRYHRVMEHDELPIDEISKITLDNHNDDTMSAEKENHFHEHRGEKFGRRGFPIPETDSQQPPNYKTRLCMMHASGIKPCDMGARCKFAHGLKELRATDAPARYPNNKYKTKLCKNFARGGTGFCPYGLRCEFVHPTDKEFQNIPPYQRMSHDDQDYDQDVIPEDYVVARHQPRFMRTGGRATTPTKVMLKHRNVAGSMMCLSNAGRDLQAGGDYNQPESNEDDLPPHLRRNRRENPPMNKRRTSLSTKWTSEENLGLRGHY
# Caspase-6 = target: T4, Caspase-6 (Homo sapiens, UniProt P55212); assay: inhibition of CASP6 peptide cleavage – biochemical, VEID-R110 fluorescence, cherry-pick, dose response (AID 720632)
# T4 sequence (P55212 whole entry): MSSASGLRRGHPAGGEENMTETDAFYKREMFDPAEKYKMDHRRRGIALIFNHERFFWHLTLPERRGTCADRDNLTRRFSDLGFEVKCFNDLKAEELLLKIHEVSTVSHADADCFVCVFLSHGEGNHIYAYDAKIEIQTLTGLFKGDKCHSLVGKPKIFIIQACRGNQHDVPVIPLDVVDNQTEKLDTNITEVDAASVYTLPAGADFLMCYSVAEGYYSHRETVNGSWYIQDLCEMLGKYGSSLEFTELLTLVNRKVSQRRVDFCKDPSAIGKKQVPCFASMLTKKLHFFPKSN
# [14] = target: T5, Histone-lysine N-methyltransferase NSD2 (Homo sapiens, UniProt O96028); type: biochemical
# T5 sequence (O96028 whole entry): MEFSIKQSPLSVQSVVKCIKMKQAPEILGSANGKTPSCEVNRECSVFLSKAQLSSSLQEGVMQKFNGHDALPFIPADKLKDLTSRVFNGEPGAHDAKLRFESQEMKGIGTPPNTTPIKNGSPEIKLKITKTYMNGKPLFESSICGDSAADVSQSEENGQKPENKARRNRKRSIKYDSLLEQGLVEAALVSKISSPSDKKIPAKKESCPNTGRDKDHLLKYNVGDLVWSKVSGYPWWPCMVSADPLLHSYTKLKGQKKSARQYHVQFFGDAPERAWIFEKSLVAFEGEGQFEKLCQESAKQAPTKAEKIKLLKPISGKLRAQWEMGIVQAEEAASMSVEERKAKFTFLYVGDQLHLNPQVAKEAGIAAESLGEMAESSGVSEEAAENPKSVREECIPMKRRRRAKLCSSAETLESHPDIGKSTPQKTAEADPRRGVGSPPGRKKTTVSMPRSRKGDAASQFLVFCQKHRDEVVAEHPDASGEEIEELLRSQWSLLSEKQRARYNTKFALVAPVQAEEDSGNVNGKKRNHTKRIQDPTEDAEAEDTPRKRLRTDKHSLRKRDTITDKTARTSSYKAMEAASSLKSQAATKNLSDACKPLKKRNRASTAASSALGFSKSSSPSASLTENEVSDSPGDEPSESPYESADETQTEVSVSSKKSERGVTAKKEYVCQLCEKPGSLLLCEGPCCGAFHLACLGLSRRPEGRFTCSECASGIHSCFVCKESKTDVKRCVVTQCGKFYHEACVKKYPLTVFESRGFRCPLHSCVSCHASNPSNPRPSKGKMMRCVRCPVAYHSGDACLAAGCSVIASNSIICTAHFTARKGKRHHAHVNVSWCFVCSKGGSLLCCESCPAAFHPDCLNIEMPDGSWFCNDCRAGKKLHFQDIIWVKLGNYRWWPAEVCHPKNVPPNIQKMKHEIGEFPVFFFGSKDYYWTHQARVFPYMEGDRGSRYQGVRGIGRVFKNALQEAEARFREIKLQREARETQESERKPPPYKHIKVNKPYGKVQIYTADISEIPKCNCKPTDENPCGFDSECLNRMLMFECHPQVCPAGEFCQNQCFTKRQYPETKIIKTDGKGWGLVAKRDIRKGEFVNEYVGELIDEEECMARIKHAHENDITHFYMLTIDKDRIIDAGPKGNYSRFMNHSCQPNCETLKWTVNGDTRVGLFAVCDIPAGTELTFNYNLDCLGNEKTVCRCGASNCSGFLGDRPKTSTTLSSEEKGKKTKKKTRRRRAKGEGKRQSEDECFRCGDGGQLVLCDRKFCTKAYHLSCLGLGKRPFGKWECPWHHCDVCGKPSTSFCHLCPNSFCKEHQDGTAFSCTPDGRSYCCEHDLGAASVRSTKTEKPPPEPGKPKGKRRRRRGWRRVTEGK
# [15] = Luminescence Cell-Based Dose Confirmation HTS to Identify Activators of 5'UTR Stem-Loop Driven Alpha-Synuclein mRNA Translation in H4 Neuroglioblastoma Cells. [Related pubchem assays: 1829 (Project Summary), 1814 (Primary HTS)]; type: functional
# H4 = assay: Luminescence Cell-Based Dose Response HTS to Identify Activators of 5'UTR Stem-Loop Driven Prion Protein mRNA Translation in H4 Neuroglioblastoma Cells. [Related pubchem assays: 1829 (Project Summary), 1814 (Primary HTS)]; type: functional; details: Homo sapiens
# [16] = viability loss in THP-1 monocytes – THP-1 cells, cytotoxicity control for Vif-APOBEC3G degradation inhibitor project, dose response (AID 1117359); type: functional; details: THP-1
# HeLa = assay: ATP-based viability loss in HeLa cells – cell-based, CellTiter-Glo luminescence, cherry-pick samples, cytotoxicity control for MITF activator project, dose response (AID 540259); type: functional; details: Homo sapiens
# [17] = target: T6, Rac GTPase-activating protein 1 (Homo sapiens, UniProt Q9H0H5); assay: blockers of MgcRacGAP-driven Rac1 GTP hydrolysis – biochemical, ADP Hunter fluorescence, primary and confirmatory, confirmation (AID 624330); type: functional
# T6 sequence (Q9H0H5 whole entry): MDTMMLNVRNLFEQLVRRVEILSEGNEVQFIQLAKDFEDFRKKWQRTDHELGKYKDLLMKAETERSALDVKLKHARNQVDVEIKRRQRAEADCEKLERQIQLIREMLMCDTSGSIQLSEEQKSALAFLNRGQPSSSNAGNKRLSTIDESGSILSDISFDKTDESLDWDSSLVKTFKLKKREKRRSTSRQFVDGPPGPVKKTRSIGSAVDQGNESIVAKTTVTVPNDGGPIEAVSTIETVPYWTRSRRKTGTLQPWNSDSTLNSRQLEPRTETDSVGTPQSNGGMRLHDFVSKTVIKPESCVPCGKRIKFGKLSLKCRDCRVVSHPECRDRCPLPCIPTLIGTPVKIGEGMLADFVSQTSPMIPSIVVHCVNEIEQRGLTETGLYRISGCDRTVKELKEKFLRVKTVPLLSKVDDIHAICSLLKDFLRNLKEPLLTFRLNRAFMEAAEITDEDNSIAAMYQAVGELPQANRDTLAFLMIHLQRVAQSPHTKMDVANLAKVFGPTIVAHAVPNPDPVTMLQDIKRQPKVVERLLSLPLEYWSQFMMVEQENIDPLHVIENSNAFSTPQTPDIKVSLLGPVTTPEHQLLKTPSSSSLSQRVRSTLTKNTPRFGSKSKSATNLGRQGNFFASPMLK
smiles,measurement,setting,value
N#C[C@@H]1[C@@H](c2ccccc2C2=CCCC2)[C@@H](CO)N1C(=O)NC1CCCC1,AC50,[1],0.592 µM (active)
same,AC50,[2],0.744 µM (active)
same,AC50,[3],10.9 µM (active)
same,AC50,[4],56.8 µM (active)
same,AC50,[5],0.791 µM (active)
Nc1c(C(=O)N2CCCCC2)sc2nc3c(cc12)CCCC3,EC50,[6],< 0.1 µM (active)
same,EC50,[7],0.682 µM (active)
same,EC50,[8],0.923 µM (active)
same,EC50,[9],0.322 µM (active)
COc1cccc(CN2C[C@@H]3N[C@H](C2)[C@@H]3c2ccc(-c3ccc(C#N)cc3)cc2)c1,AC50,[10],9.63 µM (active)
same,AC50,[5],3.09 µM (active)
Cc1cc(C=O)c(C)n1-c1cc(C(=O)O)cc(C(=O)O)c1,EC50,[11],> 300 µM (not active)
same,IC50,[12],3.16 µM (active)
same,EC50,[13],> 300 µM (not active)
same,AC50,Caspase-6,1.71 µM (active)
same,AC50,[14],> 20 µM (inactive)
OC[C@@H]1Nc2ccc(C#Cc3cccc(F)c3)cc2[C@H]2NCC[C@@H]12,AC50,[10],25.6 µM (active)
same,AC50,[1],0.804 µM (active)
same,AC50,[2],2.34 µM (active)
same,AC50,[3],1.15 µM (active)
same,AC50,[4],17.5 µM (active)
same,AC50,[5],3.01 µM (active)
Cc1ccc(-n2c(C)csc2=N)cc1,EC50,[15],< 0.1 µM (active)
same,EC50,[6],0.102 µM (active)
same,EC50,[7],0.373 µM (active)
same,EC50,H4,0.547 µM (active)
same,EC50,[8],8.21 µM (active)
same,EC50,[9],0.421 µM (active)
CN(C)/C=C1\C(=O)N(c2ccc(Cl)cc2)CS1(=O)=O,EC50,[15],< 0.1 µM (active)
same,EC50,[6],63.6 µM (active)
same,EC50,[7],1.52 µM (active)
same,EC50,H4,> 120 µM (not active)
same,EC50,[8],0.648 µM (active)
same,EC50,[9],0.697 µM (active)
COc1ccc(OC)c(NC(=O)CSc2nc3ccccc3c(=O)n2CC2CCCO2)c1 (stereo not given),CC50,[16],> 40 µM (active)
C[C@H](CO)N1C[C@H](C)[C@@H](CN(C)C(=O)CCCN(C)C)OCc2cnnn2CCCC1=O,AC50,[10],> 42 µM (inactive)
Cc1cc2cc(OCc3ccccc3)ccc2n1C,AC50,HeLa,97.8 µM (active)
same,EC50,[7],0.383 µM (active)
same,EC50,H4,< 0.1 µM (active)
same,EC50,[8],0.393 µM (active)
same,EC50,[9],0.217 µM (active)
COc1cc(Br)c(CNc2cc(C)ccc2C)cc1OC,IC50,[17],97.4 µM (active)
same,CC50,[16],12.6 µM (active)
COc1ccc(C#Cc2cccc(-c3nc(C(=O)Nc4ccc(-c5ccccc5)cc4)cc4c3[C@@H](CCO)N([S+]([O-])C(C)(C)C)C4)c2)cc1OC (stereo not given in full),AC50,[10],> 39 µM (inactive)
same,AC50,[1],0.486 µM (active)
same,AC50,[2],0.621 µM (active)
same,AC50,[3],1.12 µM (active)
same,AC50,[4],24.1 µM (active)
same,AC50,[5],0.995 µM (active)
NCCC(=O)N1c2ccccc2Sc2ccccc21,CC50,[16],> 40 µM (active)
CCCN1[C@H](CO)[C@H](c2ccc(C3=CCCC3)cc2)[C@H]1CN(C(C)=O)C1CCCC1,AC50,[1],1.75 µM (active)
same,AC50,[2],1.6 µM (active)
same,AC50,[3],3.26 µM (active)
same,AC50,[4],72.1 µM (active)
same,AC50,[5],1.92 µM (active)

# Source: ChEMBL document CHEMBL1201862, “PubChem BioAssay data set” (2004)
